# Assay results from ChEMBL document CHEMBL5385933, “Preparation and Preliminary Structure-Activity Relationship Studies of Schwarzinicine A Analogs as Vasorelaxant Agents” (J Nat Prod, 2024).
# Tests used:
# [1] = tested on: Aorta; experiment: Vasorelaxant activity in Sprague-Dawley rat aortic rings assessed as reduction in phenylephrine-induced contractions by organ bath assay; assay type: functional, tissue-based
# [2] = tested on: Aorta; experiment: Vasorelaxant activity in Sprague-Dawley rat aortic rings assessed as reduction in phenylephrine-induced contractions by measuring maximum efficacy by organ bath assay relative to control; assay type: functional
SMILES,EC50 [1] [µM],Emax [2] [%]
CCCC(Cc1ccccc1)NCCCCc1ccccc1 (centres undefined),2.74,127
c1ccc(CCNC2CCc3ccccc3C2)cc1 (centres undefined),0.5,119
c1ccc(CCNC2Cc3ccccc3C2)cc1,0.2,113
CCCC(Cc1ccccc1)NCCN1CCOCC1 (centres undefined),2.74,89.8
COc1ccc(CCNC(C)Cc2ccc(OC)c(OC)c2)cc1OC (centres undefined),2.89,104
COc1ccc(CCNC(Cc2ccccc2)Cc2ccccc2)cc1OC,1.86,115
c1ccc(CCNC(CCc2ccccc2)Cc2ccccc2)cc1 (centres undefined),2.3,116
CCCC(Cc1csc2ccccc12)NCCc1ccccc1 (centres undefined),0.37,112
CCCC(CCCCc1ccccc1)NCCc1ccccc1 (centres undefined),2.02,121
CCC(CCc1ccco1)NCCN1CCCCC1 (centres undefined),0.42,97.8
CCCC(Cc1ccccc1)NC1Cc2ccccc2C1 (centres undefined),0.35,114
CCCC(Cc1ccccc1)NC1CCCC1 (centres undefined),3.09,116
CCCC(Cc1ccccc1)NCCc1c[nH]cn1 (centres undefined),1.37,122
CCCC(Cc1ccccc1)NC1CC2CCC1C2 (centres undefined),0.48,106
CCCC(Cc1ccc(Cl)cc1)NCCc1ccccc1 (centres undefined),1.95,114
CCCC(CC1CCCCC1)NCCc1ccccc1 (centres undefined),1.84,114
CCCC(Cc1ccccc1)NCCc1ccccc1 (centres undefined),3.06,113
CCCC(Cc1ccc(C)cc1)NCCc1ccccc1 (centres undefined),2.64,120
Fc1ccc(CCNC(CCc2ccccc2)Cc2ccc(Cl)cc2)cc1 (centres undefined),0.65,92.2

SMILES,EC50 [1] [µM],Emax [2] [%]
CCCC(Cc1cccs1)NCCc1ccccc1 (centres undefined),0.41,110
CCC(CCCCc1ccccc1)NCCc1ccccc1 (centres undefined),3.36,125
CCC(CCc1ccccc1)NCCc1ccccc1 (centres undefined),1.24,11.5
CCCC(CC1CC1)NCCc1ccccc1 (centres undefined),1.51,116
CCCC(Cc1ccccc1)NCCN1CCCCC1 (centres undefined),0.13,110
CCCC(Cc1ccccc1)NCCC1=CCCCC1 (centres undefined),2.41,117
CN(CCc1ccccc1)C(CCc1ccccc1)Cc1ccccc1 (centres undefined),0.04,93.5
CCCC(CC1CCCCC1)NCCN1CCCCC1 (centres undefined),0.22,88.4
CCN(CCc1ccccc1)C(CCc1ccccc1)Cc1ccccc1 (centres undefined),1.21,85
CCCC(Cc1ccccc1)NCCC#N (centres undefined),1.43,89.5
CCCC(Cc1ccccc1)NC1CC1 (centres undefined),2.25,114
CCCC(Cc1ccccc1)NCCc1ccc([N+](=O)[O-])cc1 (centres undefined),1.73,119
CCC(CCc1ccco1)NCCc1ccccc1 (centres undefined),0.18,122
C[N+](C)(CCc1ccccc1)C(CCc1ccccc1)Cc1ccccc1 (centres undefined),1.97,136
c1ccc2c(c1)CCC(NC1Cc3ccccc3C1)C2 (centres undefined),1.32,122
CCC(CCc1cccs1)NCCc1ccccc1 (centres undefined),0.19,120
c1ccc(CCC(Cc2ccccc2)N(CCc2ccccc2)CCc2ccccc2)cc1 (centres undefined),1.39,68.9
CCCC(CC1CCCCC1)NCCC1CCCCC1 (centres undefined),0.32,83.6
CCCCCCCC(CCC)NCCc1ccccc1 (centres undefined),1.05,89.7

SMILES,EC50 [1] [µM],Emax [2] [%]
CCCC(Cc1ccccc1)NCCc1ccc(F)cc1 (centres undefined),3.83,120
CCCC(Cc1ccccc1)NCCN1CCNCC1 (centres undefined),1.04,107
CCCC(Cc1ccc2c(c1)OCO2)NCCc1ccccc1 (centres undefined),1.06,113
CCC(CCc1ccco1)NCCC1CCCCC1 (centres undefined),2.12,106
CCCNC(CCc1ccccc1)Cc1ccccc1 (centres undefined),3.83,121
CCCC(Cc1ccc(C)cc1)NCCc1ccc(F)cc1 (centres undefined),1.23,118
CCCC(Cc1ccc(Cl)cc1)NCCc1ccc(F)cc1 (centres undefined),1.09,99.1
CCCC(Cc1ccc2ccccc2c1)NCCc1ccccc1 (centres undefined),1.6,115
CCCC(Cc1ccccc1)NCCc1c[nH]c2ccccc12 (centres undefined),0.44,114
CCC(Cc1ccccc1)NCCc1ccccc1 (centres undefined),1.12,120
CCCC(Cc1ccccc1)NCCc1ccccn1 (centres undefined),1.13,114
CCC(CCc1ccc(C#N)cc1)NCCc1ccccc1 (centres undefined),1.96,125
CCCC(Cc1ccccc1)NCCc1ccc(OC)cc1 (centres undefined),1.28,114
c1ccc(CCC(Cc2ccccc2)N(CCc2ccccc2)CC2CC2)cc1 (centres undefined),0.14,75.4
CCCC(CC1CCCCC1)NCCC1=CCCCC1 (centres undefined),1,84.7
COc1ccc(CCC(Cc2ccc(OC)c(OC)c2)NCCc2ccc(OC)c(OC)c2)cc1 (centres undefined),2.99,122
CC(=O)N(CCc1ccccc1)C(CCc1ccccc1)Cc1ccccc1 (centres undefined),20.3,82.9
CCCC(Cc1ccccc1)NCCc1ccc(O)cc1 (centres undefined),0.049,111
CCCC(Cc1ccccc1)NCCc1cccs1 (centres undefined),3.5,134
